Tests used:
Format in all cases: cell-based
[1] = test system: Escherichia coli; test: Agar plate disc-diffusion, antibacterial activity (inhibition zone); settings: nutrient agar, 37° C., 48 hours
Description: (§1) The agar plate disc-diffusion method was applied. […] The discs were then placed onto the surface of agar plates (nutrient agar for bacteria and Sabouraud's dextrose agar for fungi) seeded with the test organism. Each plate contained 15 mL of the agar medium, previously seeded with 0.2 mL of the broth culture of each organism pregrown for 18 hours. The plates were incubated at 37° C. for 48 hours, and 72 hours for fungi. The inhibition zones were measured in milimeters. Discs impregnated with DMSO were used as a control, and its inhibition zone was subtracted from the tested compound actual inhibition zone.
(§2) The antibacterial activity was screened against gram positive bacteria namely Bacillus cereus and Staphylococcus aureus and gram-negative bacterial strains namely Pseudomonas aeruginosa and Escherichia coli, while the antifungal activity was screened against Aspergillus flavus and Chrysosporium keratinophilum as shown in Table 1 and 2.

[2] = test system: Bacillus cereus; test: as above; settings: nutrient agar, 37° C., 48 hours
Description: as §1, §2

[3] = test system: Pseudomonas aeruginosa; test: as above; settings: nutrient agar, 37° C., 48 hours
Description: as §1, §2

[4] = test system: Staphylococcus aureus; test: as above; settings: nutrient agar, 37° C., 48 hours
Description: as §1, §2

[5] = test system: Chrysosporium keratinophilum; test: Agar plate disc-diffusion, antifungal activity (inhibition zone); settings: Sabouraud's dextrose agar, 72 hours
Description: as §1, §2

[6] = test system: Aspergillus flavus; test: as above; settings: Sabouraud's dextrose agar, 72 hours
Description: as §1, §2

[7] = A = concentration of comp. = 10,000 uL
[8] = B = concentration of comp. = 30,000 uL
[9] = C = concentration of comp. = 50,000 uL

| SMILES | inhibition zone [1, 7] [mm] | inhibition zone [1, 8] [mm] | inhibition zone [1, 9] [mm] | inhibition zone [2, 7] [mm] | inhibition zone [2, 8] [mm] | inhibition zone [2, 9] [mm] | inhibition zone [3, 7] [mm] | inhibition zone [3, 8] [mm] | inhibition zone [3, 9] [mm] | inhibition zone [4, 7] [mm] | inhibition zone [4, 8] [mm] | inhibition zone [4, 9] [mm] | inhibition zone [5, 7] [mm] | inhibition zone [5, 8] [mm] | inhibition zone [5, 9] [mm] | inhibition zone [6, 7] [mm] | inhibition zone [6, 8] [mm] | inhibition zone [6, 9] [mm] |
| --- | --- | --- | --- | --- | --- | --- | --- | --- | --- | --- | --- | --- | --- | --- | --- | --- | --- | --- |
| O=C(O)c1cn(C2CC2)c2cc(N3CCNCC3)c(F)cc2c1=O [Cip., ciprofloxacin] | 30 | 39 | 60 | 29 | 30 | 42 | 29 | 30 | 53 | 43 | 44 | 53 | 29 | 30 | 53 | 29 | 30 | 42 |
| COc1ccc(/C(N)=N/OC(=O)CSc2nnc(-c3ccccc3)o2)cc1OC [Compound 3, 3,4-dimethoxy-N′-(2-(5-phenyl-1,3,4-oxadiazol-2-ylthio)acetoxy)benzimidamide] | 26 | 35 | 50 | 25 | 29 | 41 | 20 | 24 | 37 | 24 | 27 | 43 | 24 | 26 | 40 | 23 | 27 | 40 |

Reference: patent US11905265B1, “3,4-dimethoxy-n′-(2-(5-phenyl-1,3,4-oxadiazol-2ylthio)acetoxy)benzimidamide as an antimicrobial compound” (KING FAISAL UNIVERSITY, priority 2023, dated 2024)
